# Columns and labels:
# [1] = target: Serine/threonine-protein kinase VRK2 (Homo sapiens) (UniProt Q86Y07); details: Compound concentration 1000.0 nM
# [2] = target: Sigma non-opioid intracellular receptor 1 (Homo sapiens) (UniProt Q99720); details: Compound concentration 10.0 uM
# [3] = target: Protein kinase C alpha type (Homo sapiens) (UniProt P17252); assay: PRKCA Invitrogen selectivity data (BI); details: Compound concentration 3.0 uM
# [4] = target: Tyrosine-protein kinase ABL2 (Homo sapiens) (UniProt P42684); assay: ABL2 Invitrogen selectivity data (BI); details: Compound concentration 3.0 uM
# Sequence of Tyrosine-protein kinase ABL2 (Homo sapiens) (P42684 whole entry): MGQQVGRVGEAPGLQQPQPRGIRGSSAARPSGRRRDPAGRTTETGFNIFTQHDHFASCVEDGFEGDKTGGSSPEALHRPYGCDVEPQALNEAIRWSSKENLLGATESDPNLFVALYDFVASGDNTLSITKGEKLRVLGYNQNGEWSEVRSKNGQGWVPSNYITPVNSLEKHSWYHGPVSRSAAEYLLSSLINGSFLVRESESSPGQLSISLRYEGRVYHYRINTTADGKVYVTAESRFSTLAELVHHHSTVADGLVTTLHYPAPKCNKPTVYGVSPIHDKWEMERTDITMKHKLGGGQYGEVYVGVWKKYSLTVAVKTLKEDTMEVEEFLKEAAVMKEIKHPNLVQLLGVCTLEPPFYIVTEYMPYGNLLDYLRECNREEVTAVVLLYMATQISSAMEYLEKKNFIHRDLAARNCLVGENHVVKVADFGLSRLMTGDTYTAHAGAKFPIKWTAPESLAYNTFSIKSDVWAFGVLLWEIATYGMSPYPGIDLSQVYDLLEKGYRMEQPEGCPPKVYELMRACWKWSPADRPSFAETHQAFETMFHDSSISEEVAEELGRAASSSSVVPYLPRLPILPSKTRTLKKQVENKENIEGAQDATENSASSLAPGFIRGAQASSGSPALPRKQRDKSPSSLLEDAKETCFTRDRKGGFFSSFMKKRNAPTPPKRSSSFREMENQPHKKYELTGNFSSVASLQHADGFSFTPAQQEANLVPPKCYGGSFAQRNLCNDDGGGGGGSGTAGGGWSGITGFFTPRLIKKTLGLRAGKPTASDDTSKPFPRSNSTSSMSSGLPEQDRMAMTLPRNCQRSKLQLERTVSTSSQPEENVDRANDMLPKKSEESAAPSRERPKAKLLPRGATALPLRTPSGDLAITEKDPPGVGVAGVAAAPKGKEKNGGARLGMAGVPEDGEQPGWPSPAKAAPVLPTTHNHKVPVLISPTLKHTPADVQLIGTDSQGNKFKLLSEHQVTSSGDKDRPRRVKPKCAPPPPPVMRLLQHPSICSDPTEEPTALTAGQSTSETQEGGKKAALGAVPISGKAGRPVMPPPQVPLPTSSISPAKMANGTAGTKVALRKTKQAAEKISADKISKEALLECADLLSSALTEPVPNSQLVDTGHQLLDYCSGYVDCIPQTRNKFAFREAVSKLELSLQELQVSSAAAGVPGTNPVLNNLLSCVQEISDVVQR
# [5] = target: Glycine receptor subunit alpha-1 (Rattus norvegicus) (UniProt P07727); assay: GLYSTRYANTAG Cerep selectivity data (BI); details: filed as antagonist, Compound concentration 20.0 uM
# [6] = target: Corticotropin-releasing factor receptor 1 (Homo sapiens) (UniProt P34998); assay: CRF1/H Cerep selectivity data (BI); details: Compound concentration 20.0 uM
# [7] = target: Dual specificity tyrosine-phosphorylation-regulated kinase 4 (Homo sapiens) (UniProt Q9NR20); assay: DYRK4 Invitrogen selectivity data (BI); details: Compound concentration 3.0 uM
# [8] = target: T1, Mitogen-activated protein kinase kinase kinase 7 (Homo sapiens) (UniProt O43318); assay: MAP3K7_K7IP1 Invitrogen selectivity data (BI); details: Compound concentration 3.0 uM
# T1 sequence (whole entry): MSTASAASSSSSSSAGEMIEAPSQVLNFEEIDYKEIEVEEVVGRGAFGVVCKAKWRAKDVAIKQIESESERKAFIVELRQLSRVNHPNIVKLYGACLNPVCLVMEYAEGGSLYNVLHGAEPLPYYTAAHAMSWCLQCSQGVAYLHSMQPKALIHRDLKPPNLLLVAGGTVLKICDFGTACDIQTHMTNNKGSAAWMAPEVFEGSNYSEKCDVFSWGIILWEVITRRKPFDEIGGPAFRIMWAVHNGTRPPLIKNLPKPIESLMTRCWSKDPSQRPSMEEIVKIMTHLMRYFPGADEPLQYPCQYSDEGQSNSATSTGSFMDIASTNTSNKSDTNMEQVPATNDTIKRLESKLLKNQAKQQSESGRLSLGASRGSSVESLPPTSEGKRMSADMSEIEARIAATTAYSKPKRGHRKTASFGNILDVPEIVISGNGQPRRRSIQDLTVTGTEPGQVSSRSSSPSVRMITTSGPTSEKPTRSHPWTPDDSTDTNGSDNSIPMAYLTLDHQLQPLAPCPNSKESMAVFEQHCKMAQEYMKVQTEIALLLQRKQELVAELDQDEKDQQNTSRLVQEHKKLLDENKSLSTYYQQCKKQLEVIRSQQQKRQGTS
# [9] = target: Glucocorticoid receptor (Homo sapiens) (UniProt P04150); assay: GCORTICOID/H Cerep selectivity data (BI); details: Compound concentration 20.0 uM
# [10] = target: Protein kinase C beta type (Homo sapiens) (UniProt P05771); assay: PRKCB1 Invitrogen selectivity data (BI); details: Compound concentration 3.0 uM
# Sequence of Protein kinase C beta type (Homo sapiens) (P05771 2-671 limits assumed): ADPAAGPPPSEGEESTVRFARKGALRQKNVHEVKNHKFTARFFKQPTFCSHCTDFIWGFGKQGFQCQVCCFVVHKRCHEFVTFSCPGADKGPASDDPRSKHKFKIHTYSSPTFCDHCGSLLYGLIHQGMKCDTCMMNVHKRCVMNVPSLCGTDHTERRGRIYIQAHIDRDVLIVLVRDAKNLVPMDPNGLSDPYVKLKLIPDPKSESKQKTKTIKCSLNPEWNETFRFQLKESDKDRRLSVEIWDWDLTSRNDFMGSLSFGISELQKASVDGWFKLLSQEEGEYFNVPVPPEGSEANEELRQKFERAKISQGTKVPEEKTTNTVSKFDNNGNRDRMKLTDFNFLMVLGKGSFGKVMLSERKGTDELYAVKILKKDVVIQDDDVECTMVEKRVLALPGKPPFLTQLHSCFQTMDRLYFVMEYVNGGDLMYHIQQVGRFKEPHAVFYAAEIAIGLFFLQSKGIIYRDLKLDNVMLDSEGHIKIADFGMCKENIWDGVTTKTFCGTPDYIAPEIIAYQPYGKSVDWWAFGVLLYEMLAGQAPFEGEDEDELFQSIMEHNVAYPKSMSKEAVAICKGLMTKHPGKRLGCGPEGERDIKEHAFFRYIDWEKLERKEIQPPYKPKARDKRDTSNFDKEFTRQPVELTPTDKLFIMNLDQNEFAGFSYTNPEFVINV
# [11] = target: Vasopressin V2 receptor (Homo sapiens) (UniProt P30518); assay: V2/H Cerep selectivity data (BI); details: Compound concentration 20.0 uM
# [12] = target: T2, Alpha-1B adrenergic receptor (Homo sapiens) (UniProt P35368); assay: ALPHA1B/HU Cerep selectivity data (BI); details: Compound concentration 20.0 uM
# T2 sequence (whole entry): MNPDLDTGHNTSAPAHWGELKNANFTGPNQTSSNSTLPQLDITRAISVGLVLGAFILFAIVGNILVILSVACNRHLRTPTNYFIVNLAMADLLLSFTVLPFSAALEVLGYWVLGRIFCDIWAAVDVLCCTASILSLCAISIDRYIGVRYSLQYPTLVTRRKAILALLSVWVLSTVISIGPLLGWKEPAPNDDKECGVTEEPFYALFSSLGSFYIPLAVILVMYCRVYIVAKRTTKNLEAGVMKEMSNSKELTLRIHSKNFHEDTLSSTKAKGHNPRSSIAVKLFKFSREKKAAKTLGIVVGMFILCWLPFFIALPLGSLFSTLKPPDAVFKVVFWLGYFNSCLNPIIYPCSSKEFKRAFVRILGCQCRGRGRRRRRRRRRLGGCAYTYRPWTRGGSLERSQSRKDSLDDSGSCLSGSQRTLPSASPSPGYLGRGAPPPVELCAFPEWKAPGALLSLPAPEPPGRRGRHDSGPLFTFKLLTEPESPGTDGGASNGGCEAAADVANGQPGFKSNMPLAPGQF
# [13] = target: Prostacyclin receptor (Homo sapiens) (UniProt P43119); assay: PGI2/H Cerep selectivity data (BI); details: Compound concentration 20.0 uM
# [14] = target: Casein kinase II subunit alpha (Homo sapiens) (UniProt P68400); assay: CSNK2A1 Invitrogen selectivity data (BI); details: Compound concentration 3.0 uM
# [15] = target: T3, 5-hydroxytryptamine receptor 3A (Homo sapiens) (UniProt P46098); assay: 5HT3/HU Eurofins-Panlabs selectivity data (BI); details: Compound concentration 10.0 uM
# T3 sequence (whole entry): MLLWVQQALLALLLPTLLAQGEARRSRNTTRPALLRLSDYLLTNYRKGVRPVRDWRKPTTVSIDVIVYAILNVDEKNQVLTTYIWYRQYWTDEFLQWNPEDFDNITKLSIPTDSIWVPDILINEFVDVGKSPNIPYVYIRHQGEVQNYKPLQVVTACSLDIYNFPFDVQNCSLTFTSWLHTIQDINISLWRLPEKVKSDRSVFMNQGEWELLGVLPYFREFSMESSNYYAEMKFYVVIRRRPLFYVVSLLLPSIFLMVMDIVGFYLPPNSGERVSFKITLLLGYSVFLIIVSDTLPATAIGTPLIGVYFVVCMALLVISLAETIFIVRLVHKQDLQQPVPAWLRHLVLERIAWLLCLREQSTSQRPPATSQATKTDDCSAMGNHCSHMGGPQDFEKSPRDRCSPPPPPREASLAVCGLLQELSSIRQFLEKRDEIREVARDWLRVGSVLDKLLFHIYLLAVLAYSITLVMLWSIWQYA
# [16] = target: Serine/threonine-protein kinase 16 (Homo sapiens) (UniProt O75716); assay: STK16 Invitrogen selectivity data (BI); details: Compound concentration 3.0 uM
# Sequence of Serine/threonine-protein kinase 16 (Homo sapiens) (O75716 whole entry): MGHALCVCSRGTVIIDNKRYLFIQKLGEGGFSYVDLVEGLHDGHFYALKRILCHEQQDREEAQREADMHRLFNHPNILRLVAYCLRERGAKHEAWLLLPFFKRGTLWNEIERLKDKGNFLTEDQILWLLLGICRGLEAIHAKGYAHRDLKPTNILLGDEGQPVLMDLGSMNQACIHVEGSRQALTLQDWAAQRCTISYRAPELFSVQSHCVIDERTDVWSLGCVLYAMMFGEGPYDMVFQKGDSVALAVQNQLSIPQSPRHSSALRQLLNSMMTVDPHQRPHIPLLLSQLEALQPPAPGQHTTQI
# [17] = target: Dual specificity tyrosine-phosphorylation-regulated kinase 1A (Homo sapiens) (UniProt Q13627); assay: DYRK1A Invitrogen selectivity data (BI); details: Compound concentration 3.0 uM
# [18] = target: Beta-secretase 1 (Homo sapiens) (UniProt P56817); assay: BACE-1 Cerep selectivity data (BI); details: Compound concentration 20.0 uM
# [19] = target: Tyrosine-protein kinase Yes (Homo sapiens) (UniProt P07947); assay: YES1 Invitrogen selectivity data (BI); details: Compound concentration 3.0 uM
# Sequence of Tyrosine-protein kinase Yes (Homo sapiens) (P07947 2-543 limits assumed): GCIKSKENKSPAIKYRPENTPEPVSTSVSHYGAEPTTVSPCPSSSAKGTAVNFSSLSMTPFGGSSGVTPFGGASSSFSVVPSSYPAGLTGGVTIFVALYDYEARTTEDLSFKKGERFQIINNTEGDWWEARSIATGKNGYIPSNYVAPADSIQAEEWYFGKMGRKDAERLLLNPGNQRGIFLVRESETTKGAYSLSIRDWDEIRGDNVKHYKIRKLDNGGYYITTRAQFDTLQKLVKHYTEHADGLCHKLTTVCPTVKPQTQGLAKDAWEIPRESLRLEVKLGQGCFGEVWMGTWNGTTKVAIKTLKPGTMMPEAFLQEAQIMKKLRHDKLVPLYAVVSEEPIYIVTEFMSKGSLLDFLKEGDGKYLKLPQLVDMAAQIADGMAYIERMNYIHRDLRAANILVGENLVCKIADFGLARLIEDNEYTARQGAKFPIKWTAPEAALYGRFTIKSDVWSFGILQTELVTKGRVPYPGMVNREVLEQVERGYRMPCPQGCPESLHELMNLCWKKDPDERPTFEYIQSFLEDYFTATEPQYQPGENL
# [20] = target: Serine/threonine-protein kinase PAK 2 (Homo sapiens) (UniProt Q13177); assay: PAK2 Invitrogen selectivity data (BI); details: Compound concentration 3.0 uM
# [21] = target: DNA-dependent protein kinase catalytic subunit (Homo sapiens) (UniProt P78527); assay: DNA-PK Invitrogen selectivity data (BI); details: Compound concentration 3.0 uM
# [22] = target: L-type Ca2+ channel (dihydropyridine site), Cav1.2 alpha-1C (Rattus norvegicus, UniProt P22002); assay: CA+/DHPSI/R Cerep selectivity data (BI); design: mode of action inhibitor; details: rat brain, probe [3H](+)PN200-110, compound concentration 20 uM, read-out: % Ctrl
# Sequence of L-type Ca2+ channel (dihydropyridine site), Cav1.2 alpha-1C (P22002 whole entry): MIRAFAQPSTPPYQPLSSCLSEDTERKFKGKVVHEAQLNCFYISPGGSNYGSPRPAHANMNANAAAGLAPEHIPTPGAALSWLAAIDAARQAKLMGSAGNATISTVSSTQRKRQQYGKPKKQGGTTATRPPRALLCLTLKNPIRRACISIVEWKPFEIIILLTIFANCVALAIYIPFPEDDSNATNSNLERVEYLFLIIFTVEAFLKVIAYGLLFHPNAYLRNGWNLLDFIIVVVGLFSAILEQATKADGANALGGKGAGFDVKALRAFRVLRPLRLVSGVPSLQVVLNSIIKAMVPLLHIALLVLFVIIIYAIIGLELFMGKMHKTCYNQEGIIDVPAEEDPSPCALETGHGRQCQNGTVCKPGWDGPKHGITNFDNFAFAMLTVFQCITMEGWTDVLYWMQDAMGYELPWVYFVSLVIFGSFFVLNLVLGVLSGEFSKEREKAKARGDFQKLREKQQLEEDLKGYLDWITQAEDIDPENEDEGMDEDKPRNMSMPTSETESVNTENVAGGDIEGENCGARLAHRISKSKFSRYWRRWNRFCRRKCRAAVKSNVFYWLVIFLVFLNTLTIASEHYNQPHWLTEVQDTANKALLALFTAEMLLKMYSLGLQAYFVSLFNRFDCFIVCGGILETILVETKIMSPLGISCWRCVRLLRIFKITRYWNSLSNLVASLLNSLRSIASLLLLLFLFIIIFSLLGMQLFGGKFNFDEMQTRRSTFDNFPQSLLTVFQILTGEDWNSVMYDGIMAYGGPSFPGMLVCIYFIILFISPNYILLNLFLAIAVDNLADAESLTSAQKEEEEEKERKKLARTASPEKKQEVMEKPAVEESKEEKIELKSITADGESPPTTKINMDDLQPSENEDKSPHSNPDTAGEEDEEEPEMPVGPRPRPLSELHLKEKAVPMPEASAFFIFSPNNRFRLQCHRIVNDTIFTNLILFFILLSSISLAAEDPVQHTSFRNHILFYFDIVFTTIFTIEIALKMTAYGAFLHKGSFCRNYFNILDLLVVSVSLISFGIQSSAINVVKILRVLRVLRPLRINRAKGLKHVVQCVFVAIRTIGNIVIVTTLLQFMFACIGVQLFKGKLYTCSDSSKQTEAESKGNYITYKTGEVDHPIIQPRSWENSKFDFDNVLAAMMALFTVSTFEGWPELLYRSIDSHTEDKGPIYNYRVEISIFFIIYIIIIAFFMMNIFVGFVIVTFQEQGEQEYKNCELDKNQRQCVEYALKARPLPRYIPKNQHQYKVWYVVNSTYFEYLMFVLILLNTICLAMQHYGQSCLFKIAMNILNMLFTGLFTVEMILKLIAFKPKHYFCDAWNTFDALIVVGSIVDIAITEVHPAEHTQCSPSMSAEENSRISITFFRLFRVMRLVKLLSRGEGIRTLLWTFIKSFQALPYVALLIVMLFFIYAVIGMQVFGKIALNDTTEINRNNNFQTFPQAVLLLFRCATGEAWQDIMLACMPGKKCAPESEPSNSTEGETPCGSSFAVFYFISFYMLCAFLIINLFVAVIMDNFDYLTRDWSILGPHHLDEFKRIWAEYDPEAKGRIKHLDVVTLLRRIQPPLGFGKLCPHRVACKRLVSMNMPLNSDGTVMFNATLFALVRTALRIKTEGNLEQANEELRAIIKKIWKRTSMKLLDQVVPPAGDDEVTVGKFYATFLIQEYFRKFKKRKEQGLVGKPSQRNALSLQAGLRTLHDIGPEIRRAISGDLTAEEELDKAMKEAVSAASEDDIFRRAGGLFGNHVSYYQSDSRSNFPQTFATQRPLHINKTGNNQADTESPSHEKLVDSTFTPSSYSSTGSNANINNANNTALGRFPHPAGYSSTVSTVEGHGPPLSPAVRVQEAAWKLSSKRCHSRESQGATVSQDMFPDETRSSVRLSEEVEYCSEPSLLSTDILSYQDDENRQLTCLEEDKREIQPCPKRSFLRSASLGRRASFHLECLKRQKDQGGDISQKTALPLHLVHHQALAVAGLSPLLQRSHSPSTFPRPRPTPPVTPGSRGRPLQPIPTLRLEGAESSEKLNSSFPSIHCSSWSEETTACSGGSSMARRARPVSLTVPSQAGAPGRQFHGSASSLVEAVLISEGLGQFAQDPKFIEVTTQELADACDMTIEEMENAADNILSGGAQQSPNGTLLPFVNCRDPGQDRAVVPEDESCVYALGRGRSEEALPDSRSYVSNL
# [23] = target: G protein-coupled receptor kinase 6 (Homo sapiens) (UniProt P43250); assay: GRK6 Invitrogen selectivity data (BI); details: Compound concentration 3.0 uM
# Sequence of Sigma non-opioid intracellular receptor 1 (Homo sapiens) (Q99720 whole entry): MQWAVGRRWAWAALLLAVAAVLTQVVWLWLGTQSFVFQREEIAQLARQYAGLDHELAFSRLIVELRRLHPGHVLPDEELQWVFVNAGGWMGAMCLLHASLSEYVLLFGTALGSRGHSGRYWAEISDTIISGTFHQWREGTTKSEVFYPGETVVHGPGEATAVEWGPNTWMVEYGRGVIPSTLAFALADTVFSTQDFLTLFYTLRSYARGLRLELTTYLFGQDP
structure (smiles),measurement,setting,value
CN(C)C(=O)Cn1cc(-c2nc(C3(c4ccc(-c5cnc(N)nc5)cc4)CC3)no2)cn1 [BI 0153],residual activity,[1],90%
same,inhibition,[2],-4.19%
CN(C)C(=O)Cn1cc(-c2nc([C@@](C)(c3ccc(-c4cnc(N)nc4)cc3)C3CC3)no2)cn1 [BI 665915],residual activity,[3],102%
same,residual activity,[4],79.5%
same,residual activity,[5],118%
same,residual activity,[6],148%
same,residual activity,[7],99.5%
same,residual activity,[8],87%
same,residual activity,[9],96%
same,residual activity,[10],98.5%
same,residual activity,[11],102%
same,residual activity,[12],120%
same,residual activity,[13],94%
same,residual activity,[14],97%
same,residual activity,[15],102%
same,residual activity,[16],98%
same,residual activity,[17],100%
same,residual activity,[18],102%
same,residual activity,[19],88.5%
same,residual activity,[20],100%
same,residual activity,[21],91%
same,activity at 20 µM,[22],85% (not active)
same,residual activity,[23],102%

# — ChEMBL document CHEMBL4507276 (2021)
